Experimental data: the NIST ThermoML archive (doi:10.1016/j.fluid.2017.01.019)
± gives the expanded uncertainty stated by the source.

Legend:
[1] = xn = mol fraction of the nth substance listed; conditions: 100 kPa, Liquid, x2 = 0; for viscosity: Falling or rolling sphere viscometry; for mass density: Vibrating tube method; for speed of sound: Frequency=3 MHz, Sing-around technique in a fixed-path interferometer
[2] = 101.33 kPa, Liquid; for viscosity: Falling or rolling sphere viscometry; for speed of sound: Sing-around technique in a fixed-path interferometer; for mass density: Vibrating tube method

viscosity ([1]; 303.15 K) [mPa·s] | speed of sound ([1]; 303.15 K) [m/s] | mass density ([1]; 303.15 K) [kg/m3] | viscosity ([1]; 308.15 K) [mPa·s] | speed of sound ([1]; 308.15 K) [m/s] | mass density ([1]; 308.15 K) [kg/m3] | viscosity ([1]; 313.15 K) [mPa·s] | speed of sound ([1]; 313.15 K) [m/s] | mass density ([1]; 313.15 K) [kg/m3] | viscosity ([1]; 318.15 K) [mPa·s] | speed of sound ([1]; 318.15 K) [m/s] | mass density ([1]; 318.15 K) [kg/m3] | viscosity ([1]; 323.15 K) [mPa·s] | speed of sound ([1]; 323.15 K) [m/s] | mass density ([1]; 323.15 K) [kg/m3] | viscosity ([2]; 298.15 K) [mPa·s] | speed of sound ([2]; 298.15 K) [m/s] | mass density ([2]; 298.15 K) [kg/m3] | viscosity ([2]; 303.15 K) [mPa·s] | speed of sound ([2]; 303.15 K) [m/s] | other results | SMILES
0.51 ± 0.15 | 1086.9 ± 1.2 | 782.158 ± 0.24 | 0.48 ± 0.15 | 1070.6 ± 1.2 | 777.414 ± 0.24 | 0.45 ± 0.15 | 1054.5 ± 1.2 | 772.64 ± 0.24 | 0.43 ± 0.15 | 1038.5 ± 1.2 | 767.844 ± 0.24 | 0.41 ± 0.15 | 1022.5 ± 1.2 | 763.028 ± 0.24 | – | – | – | – | – | viscosity ([1]; 298.15 K): 0.55 ± 0.15 mPa·s; mass density ([1]; 298.15 K): 786.884 ± 0.24 kg/m3 | CO [methanol] + CCOS(=O)(=O)[O-].CCn1cc[n+](C)c1
0.51 ± 0.15 | 1086.9 ± 1.2 | 782.158 ± 0.24 | 0.48 ± 0.15 | 1070.6 ± 1.2 | 777.414 ± 0.24 | 0.45 ± 0.15 | 1054.5 ± 1.2 | 772.64 ± 0.24 | 0.43 ± 0.15 | 1038.5 ± 1.2 | 767.844 ± 0.24 | 0.41 ± 0.15 | 1022.5 ± 1.2 | 763.028 ± 0.24 | – | – | – | – | – | viscosity ([1]; 293.15 K): 0.55 ± 0.15 mPa·s; speed of sound ([1]; 298.15 K): 1103.3 ± 1.2 m/s; mass density ([1]; 298.15 K): 786.884 ± 0.24 kg/m3 | CO [methanol] + CCCCO
2.31 ± 0.15 | 1224.3 ± 1.3 | 802.42 ± 0.24 | 2.07 ± 0.15 | 1207.5 ± 1.3 | 798.536 ± 0.24 | 1.85 ± 0.15 | 1190.9 ± 1.3 | 794.617 ± 0.24 | 1.66 ± 0.15 | 1174.2 ± 1.2 | 790.655 ± 0.24 | 1.5 ± 0.15 | 1157.6 ± 1.2 | 786.645 ± 0.24 | – | – | – | – | – | mass density ([1]; 289.15 K): 806.27 ± 0.23 kg/m3; viscosity ([1]; 298.15 K): 2.61 ± 0.15 mPa·s; speed of sound ([1]; 298.15 K): 1241.1 ± 1.3 m/s | CCCCO [butan-1-ol] + CCOS(=O)(=O)[O-].CCn1cc[n+](C)c1
– | – | – | – | – | – | – | – | – | – | – | – | – | – | – | 0.55 ± 0.15 | 1103.3 ± 1.2 | 786.884 ± 0.24 | 0.51 ± 0.15 | 1086.9 ± 1.2 | mass density ([2]; 303.15 K): 782.158 ± 0.24 kg/m3; viscosity ([2]; 308.15 K): 0.48 ± 0.15 mPa·s; speed of sound ([2]; 308.15 K): 1070.6 ± 1.2 m/s; mass density ([2]; 308.15 K): 777.414 ± 0.24 kg/m3; viscosity ([2]; 313.15 K): 0.45 ± 0.15 mPa·s; speed of sound ([2]; 313.15 K): 1054.5 ± 1.2 m/s; mass density ([2]; 313.15 K): 772.64 ± 0.24 kg/m3; viscosity ([2]; 318.15 K): 0.43 ± 0.15 mPa·s; speed of sound ([2]; 318.15 K): 1038.5 ± 1.2 m/s; mass density ([2]; 318.15 K): 767.844 ± 0.24 kg/m3; viscosity ([2]; 323.15 K): 0.41 ± 0.15 mPa·s; speed of sound ([2]; 323.15 K): 1022.5 ± 1.2 m/s; mass density ([2]; 323.15 K): 763.028 ± 0.24 kg/m3 | CO [methanol]
– | – | – | – | – | – | – | – | – | – | – | – | – | – | – | 2.61 ± 0.15 | 1239.8 ± 1.3 | 806.27 ± 0.24 | 2.31 ± 0.15 | 1223.2 ± 1.3 | mass density ([2]; 303.15 K): 802.42 ± 0.24 kg/m3; viscosity ([2]; 308.15 K): 2.07 ± 0.15 mPa·s; speed of sound ([2]; 308.15 K): 1206.3 ± 1.3 m/s; mass density ([2]; 308.15 K): 798.536 ± 0.24 kg/m3; viscosity ([2]; 313.15 K): 1.85 ± 0.15 mPa·s; speed of sound ([2]; 313.15 K): 1189.7 ± 1.2 m/s; mass density ([2]; 313.15 K): 794.617 ± 0.24 kg/m3; viscosity ([2]; 318.15 K): 1.66 ± 0.15 mPa·s; speed of sound ([2]; 318.15 K): 1173.1 ± 1.2 m/s; mass density ([2]; 318.15 K): 790.655 ± 0.24 kg/m3; viscosity ([2]; 323.15 K): 1.5 ± 0.15 mPa·s; speed of sound ([2]; 323.15 K): 1156.5 ± 1.2 m/s; mass density ([2]; 323.15 K): 786.645 ± 0.24 kg/m3 | CCCCO [butan-1-ol]
– | – | – | – | – | – | – | – | – | – | – | – | – | – | – | 96.21 ± 3.2 | 1682.3 ± 5.1 | 1236.33 ± 8.3 | 75.89 ± 2.2 | 1670 ± 5.1 | mass density ([2]; 303.15 K): 1232.93 ± 8.3 kg/m3; viscosity ([2]; 308.15 K): 60.73 ± 1.6 mPa·s; speed of sound ([2]; 308.15 K): 1657.9 ± 5.1 m/s; mass density ([2]; 308.15 K): 1229.57 ± 8.2 kg/m3; viscosity ([2]; 313.15 K): 49.38 ± 1.3 mPa·s; speed of sound ([2]; 313.15 K): 1645.9 ± 5.1 m/s; mass density ([2]; 313.15 K): 1226.21 ± 8.2 kg/m3; viscosity ([2]; 318.15 K): 40.93 ± 1.1 mPa·s; speed of sound ([2]; 318.15 K): 1634.1 ± 5.1 m/s; mass density ([2]; 318.15 K): 1222.87 ± 8.1 kg/m3; viscosity ([2]; 323.15 K): 33.82 ± 0.89 mPa·s; speed of sound ([2]; 323.15 K): 1622.3 ± 5.1 m/s; mass density ([2]; 323.15 K): 1219.54 ± 8.1 kg/m3 | CCOS(=O)(=O)[O-].CCn1cc[n+](C)c1 [1-ethyl-3-methylimidazolium ethyl sulfate]
